In this assay the target is Genome polyprotein (Hepatitis C virus genotype 1a (isolate H77), UniProt P27958). Nature of the assay: Continuous Spectrophotometric Assay. The settings on record: pH 6.5; 30 °C. The method, then:
Proteolytic cleavage of the ester linkage between the Nva (L-norvaline) and the chromophore (PAP) was monitored for change in absorbance at 370 nm. Initial velocities were determined using linear regression and kinetic constants were obtained by fitting the data to the Michaelis-Menten equation.

Each structure is given as a SMILES string.

Genome polyprotein, sequence (P27958 1027-1657 limits assumed): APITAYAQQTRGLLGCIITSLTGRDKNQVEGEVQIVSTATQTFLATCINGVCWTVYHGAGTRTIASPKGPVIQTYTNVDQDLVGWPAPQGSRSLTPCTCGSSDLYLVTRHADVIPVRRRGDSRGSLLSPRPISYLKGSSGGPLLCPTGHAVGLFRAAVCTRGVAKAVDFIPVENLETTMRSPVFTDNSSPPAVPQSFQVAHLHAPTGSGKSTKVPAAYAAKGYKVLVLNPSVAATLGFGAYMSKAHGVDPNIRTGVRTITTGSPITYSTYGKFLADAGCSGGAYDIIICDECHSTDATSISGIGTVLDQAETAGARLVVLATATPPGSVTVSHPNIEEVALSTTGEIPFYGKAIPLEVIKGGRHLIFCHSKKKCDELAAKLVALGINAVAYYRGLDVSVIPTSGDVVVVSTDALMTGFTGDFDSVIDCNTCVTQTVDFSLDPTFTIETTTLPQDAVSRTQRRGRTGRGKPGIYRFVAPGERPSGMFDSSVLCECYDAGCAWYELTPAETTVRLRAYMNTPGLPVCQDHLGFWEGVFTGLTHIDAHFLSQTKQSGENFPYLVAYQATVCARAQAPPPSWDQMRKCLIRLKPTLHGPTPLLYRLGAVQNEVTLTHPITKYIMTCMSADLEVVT

Consider `CC[C@H](NC(=O)[C@@H]1[C@@H]2[C@H](CN1C(=O)[C@@H](NC(=O)NC(C)(C)C)C(C)(C)C)C2(C)C)B1O[C@@H]2CC3CC(C3(C)C)[C@]2(C)O1` (stereo partly drawn) [(1R,2S,5S)-3-[(2S)-2-[(tert-butylcarbamoyl)amino]-3,3-dimethylbutanoyl]-6,6-dimethyl-N-[(1R)-1-[(2S,6R)-2,9,9-trimethyl-3,5-dioxa-4-boratricyclo[6.1.1.0^{2,6}]decan-4-yl]propyl]-3-azabicyclo[3.1.0]hexane-2-carboxamide], for which the affinity, expressed as Ki, was 0.5 µM. With `CC(C)(C)NC(=O)N[C@H](C(=O)N1C[C@H]2[C@@H](C1C(=O)N[C@@H](CC1CCC1)B1O[C@@H]3CC4CC(C4(C)C)[C@]3(C)O1)C2(C)C)C(C)(C)C` (stereo partly drawn) [(1R,5S)-3-[(2S)-2-[(tert-butylcarbamoyl)amino]-3,3-dimethylbutanoyl]-N-[(1R)-2-cyclobutyl-1-[(2S,6R)-2,9,9-trimethyl-3,5-dioxa-4-boratricyclo[6.1.1.0^{2,6}]decan-4-yl]ethyl]-6,6-dimethyl-3-azabicyclo[3.1.0]hexane-2-carboxamide], the Ki (commonly a measure of affinity in units of concentration, obtained from inhibition or displacement) was found to be 0.01 µM. The result for `CC[C@H](NC(=O)[C@@H]1[C@@H]2[C@H](CN1C(=O)[C@@H](NC(=O)N[C@H](CN(C)S(C)(=O)=O)C(C)(C)C)C(C)(C)C)C2(C)C)B1O[C@@H]2CC3CC(C3(C)C)[C@]2(C)O1` (stereo partly drawn) [(1R,2S,5S)-3-[(2S)-2-({[(2S)-1-[methane(methyl)sulfonamido]-3,3-dimethylbutan-2-yl]carbamoyl}amino)-3,3-dimethylbutanoyl]-6,6-dimethyl-N-[(1R)-1-[(2S,6R)-2,9,9-trimethyl-3,5-dioxa-4-boratricyclo[6.1.1.0^{2,6}]decan-4-yl]propyl]-3-azabicyclo[3.1.0]hexane-2-carboxamide] reads 0.034 µM; that for `CC(C)(C)NC(=O)N[C@H](C(=O)N1C[C@H]2[C@@H](C1C(=O)N[C@@H](CC1CCC1)B(O)O)C2(C)C)C(C)(C)C` (stereo partly drawn) [(1R,5S)-3-[(2S)-2-[(tert-butylcarbamoyl)amino]-3,3-dimethylbutanoyl]-N-[(1R)-2-cyclobutyl-1-(dihydroxyboranyl)ethyl]-6,6-dimethyl-3-azabicyclo[3.1.0]hexane-2-carboxamide], 0.01 µM; that for `CN(C[C@@H](NC(=O)N[C@H](C(=O)N1C[C@H]2[C@@H]([C@H]1C(=O)N[C@@H](CC1CCC1)B1O[C@@H]3CC4CC(C4(C)C)[C@]3(C)O1)C2(C)C)C(C)(C)C)C(C)(C)C)S(C)(=O)=O` (stereo partly drawn) [(1R,2S,5S)-N-[(1R)-2-cyclobutyl-1-[(2S,6R)-2,9,9-trimethyl-3,5-dioxa-4-boratricyclo[6.1.1.0^{2,6}]decan-4-yl]ethyl]-3-[(2S)-2-({[(2S)-1-[methane(methyl)sulfonamido]-3,3-dimethylbutan-2-yl]carbamoyl}amino)-3,3-dimethylbutanoyl]-6,6-dimethyl-3-azabicyclo[3.1.0]hexane-2-carboxamide], 0.0005 µM.

As for `CC[C@H](NC(=O)C1[C@@H]2[C@H](CN1C(=O)[C@@H](NC(=O)NC(C)(C)C)C(C)(C)C)C2(C)C)B1O[C@@H]2CC3CC(C3(C)C)[C@]2(C)O1` (stereo partly drawn) [(1R,5S)-3-[(2S)-2-[(tert-butylcarbamoyl)amino]-3,3-dimethylbutanoyl]-6,6-dimethyl-N-[(1R)-1-[(2S,6R)-2,9,9-trimethyl-3,5-dioxa-4-boratricyclo[6.1.1.0^{2,6}]decan-4-yl]propyl]-3-azabicyclo[3.1.0]hexane-2-carboxamide], affinity was put at a Ki of 0.38 µM.

The values above are taken from BindingDB's records for doi:10.1016/j.bmcl.2008.10.124 (Schering-Plough Research Institute, 2009).
